Each substance was assayed against T1, GPR6 receptor (Homo sapiens, UniProt P46095) (assay: Inhibition of cAMP Activity of GPR6 In Vitro Assay (CHO-K1 cells, HTRF cAMP)). Settings: compounds of Compound Table 1; inhibition of constitutive cAMP activity of GPR6 expressed in CHO-K1 cells; approximate IC50; read-out: IC50.
T1 construct: expressed in transfected cells
Type: cell-based
Procedure, shortened: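 CHO-K1 cells with doxycycline-induced (1 μg/ml, 20 h) GPR6 treated with compounds 45 min at 37 °C in Ringer's buffer (pH 7.4) with 0.5% fatty acid free BSA. Constitutive cAMP measured by Lance HTRF Ultra cAMP; IC50 from four-parameter logistic fit.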

T1 sequence (P46095 whole entry): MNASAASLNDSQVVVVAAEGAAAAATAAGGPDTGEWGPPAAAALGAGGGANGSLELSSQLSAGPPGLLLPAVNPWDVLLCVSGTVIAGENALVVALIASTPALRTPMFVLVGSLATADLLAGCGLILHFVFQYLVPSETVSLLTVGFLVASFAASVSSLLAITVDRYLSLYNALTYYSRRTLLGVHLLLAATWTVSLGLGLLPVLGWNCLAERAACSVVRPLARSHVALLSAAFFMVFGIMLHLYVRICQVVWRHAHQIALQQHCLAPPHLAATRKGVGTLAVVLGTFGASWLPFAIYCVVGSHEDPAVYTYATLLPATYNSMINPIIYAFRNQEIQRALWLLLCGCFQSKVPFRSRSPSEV

Substance | IC50 [nM]
(S)-2-(cyclopropylamino)-3-(4-((2,4-difluorophenyl)fluoromethyl)piperidin-1-yl)pyrido[3,4-b]pyrazine-7-carbonitrile [Cpd 547] | 16
(S)-3-(cyclopropylamino)-2-(4-((2,4-difluorophenyl)fluoromethyl)piperidin-1-yl)pyrido[3,4-b]pyrazine-7-carbonitrile [Cpd 550] | 17
(S)-3-(cyclopropylamino)-2-(4-((2,4-difluorophenyl)fluoromethyl)piperidin-1-yl)quinoxaline-6-carbonitrile [Cpd 509] | 49
(S)-(2-(cyclopropylamino)-3-(4-((2,4-difluorophenyl)fluoromethyl)piperidin-1-yl)pyrido[3,4-b]pyrazin-7-yl)(morpholino)methanone, 2,2,2-trifluoroacetic acid salt [Cpd 579] | 10
(S)—N-(sec-butyl)-3-(4-(2-fluoro-4-methoxyphenoxy)piperidin-1-yl)pyrazino[2,3-d]pyridazin-2-amine, 2,2,2-trifluoroacetic acid salt [Cpd 637] | 26
(S)—N-cyclopropyl-3-(4-((2,4-difluorophenyl)fluoromethyl)piperidin-1-yl)-5-methylpyrido[3,4-b]pyrazin-2-amine, 2,2,2-trifluoroacetic acid salt [Cpd 516] | 29
(S)—N-cyclopropyl-3-(4-((2,4-difluorophenyl)fluoromethyl)piperidin-1-yl)-7-methylpyrido[3,4-b]pyrazin-2-amine, 2,2,2-trifluoroacetic acid salt [Cpd 502] | 1430
(S)—N-cyclopropyl-3-(4-((2,4-difluorophenyl)fluoromethyl)piperidin-1-yl)pyrazino[2,3-d]pyridazin-2-amine, 2,2,2-trifluoroacetic acid salt [Cpd 594] | 31
N2-cyclopropyl-3-(4-(2-fluoro-4-methoxyphenoxy)piperidin-1-yl)-N5,N5-dimethylpyrido[3,4-b]pyrazine-2,5-diamine, 2,2,2-trifluoroacetic acid salt [Cpd 607] | 43
N-cyclobutyl-2-(4-(2,4-difluorophenoxy)piperidin-1-yl)pyrido[3,4-b]pyrazin-3-amine [Cpd 657] | 8
N-cyclohexyl-3-(4-(2,5-dichlorobenzyl)piperazin-1-yl)quinoxalin-2-amine, 2,2,2-trifluoroacetic acid salt [Cpd 170] | 4070
N-cyclopropyl-2-(4-(2,4-difluorobenzyl)piperidin-1-yl)pyrido[3,4-b]pyrazin-3-amine, 2,2,2-trifluoroacetic acid salt [Cpd 427] | 78
N-cyclopropyl-2-(4-(2,5-difluorobenzyl)piperazin-1-yl)pyrido[3,4-b]pyrazin-3-amine, 2,2,2-trifluoroacetic acid salt [Cpd 292] | 56
N-cyclopropyl-3-(4-(2,3,5-trichlorobenzyl)piperazin-1-yl)quinoxalin-2-amine, 2,2,2-trifluoroacetic acid salt [Cpd 221] | 20400
N-cyclopropyl-3-(4-(2,4-difluorobenzyl)piperidin-1-yl)-5-methylpyrido[3,4-b]pyrazin-2-amine, 2,2,2-trifluoroacetic acid salt [Cpd 493] | 9
N-cyclopropyl-3-(4-(2,4-difluorobenzyl)piperidin-1-yl)-6-fluoroquinoxalin-2-amine, 2,2,2-trifluoroacetic acid salt [Cpd 479] | 140
N-cyclopropyl-3-(4-(2,4-difluorobenzyl)piperidin-1-yl)pyrido[3,4-b]pyrazin-2-amine, 2,2,2-trifluoroacetic acid salt [Cpd 414] | 390

Substance | IC50 [nM]
N-cyclopropyl-3-(4-(2,4-difluorophenoxy)piperidin-1-yl)-5-methylpyrido[3,4-b]pyrazin-2-amine, 2,2,2-trifluoroacetic acid salt [Cpd 494] | 2
N-cyclopropyl-3-(4-(2,4-difluorophenoxy)piperidin-1-yl)pyrazino[2,3-d]pyridazin-2-amine, 2,2,2-trifluoroacetic acid salt [Cpd 619] | 14
N-cyclopropyl-3-(4-(2,5-dichlorobenzyl)piperazin-1-yl)pyrido[3,4-b]pyrazin-2-amine, 2,2,2-trifluoroacetic acid salt [Cpd 134] | 1640
N-cyclopropyl-3-(4-(2,5-difluorophenoxy)piperidin-1-yl)pyrido[3,4-b]pyrazin-2-amine, 2,2,2-trifluoroacetic acid salt [Cpd 431] | 170
N-cyclopropyl-3-(4-(2-fluoro-4-(methylthio)phenoxy)piperidin-1-yl)pyrazino[2,3-d]pyridazin-2-amine, 2,2,2-trifluoroacetic acid salt [Cpd 618] | 12
N-cyclopropyl-3-(4-(2-methoxyphenoxy)piperidin-1-yl)pyrido[3,4-b]pyrazin-2-amine, 2,2,2-trifluoroacetic acid salt [Cpd 559] | 67
N-cyclopropyl-3-(4-(3-isopropylbenzyl)piperazin-1-yl)quinoxalin-2-amine, 2,2,2-trifluoroacetic acid salt [Cpd 211] | 9440
N-cyclopropyl-3-(4-(3-methoxyphenoxy)piperidin-1-yl)pyrido[3,4-b]pyrazin-2-amine, 2,2,2-trifluoroacetic acid salt [Cpd 558] | 1940
N-cyclopropyl-3-(4-(4-(methylthio)phenoxy)piperidin-1-yl)pyrido[3,4-b]pyrazin-2-amine, 2,2,2-trifluoroacetic acid salt [Cpd 600] | 20
N-cyclopropyl-3-(4-(4-ethoxyphenoxy)piperidin-1-yl)pyrido[3,4-b]pyrazin-2-amine, 2,2,2-trifluoroacetic acid salt [Cpd 601] | 22
N-cyclopropyl-3-(4-(4-fluoro-2-methylbenzyl)piperazin-1-yl)quinoxalin-2-amine, 2,2,2-trifluoroacetic acid salt [Cpd 157] | 105000
N-cyclopropyl-3-(4-(4-fluorobenzyl)piperazin-1-yl)pyrido[3,4-b]pyrazin-2-amine, 2,2,2-trifluoroacetic acid salt [Cpd 291] | 140
N-cyclopropyl-3-(4-(4-fluorobenzyl)piperidin-1-yl)pyrido[3,4-b]pyrazin-2-amine, 2,2,2-trifluoroacetic acid salt [Cpd 421] | 8390
N-cyclopropyl-3-(4-(4-methoxyphenoxy)piperidin-1-yl)pyrido[3,4-b]pyrazin-2-amine [Cpd 552] | 24
N-cyclopropyl-3-(4-((2,4-difluorophenyl)difluoromethyl)piperidin-1-yl)pyrido[3,4-b]pyrazin-2-amine [Cpd 545] | 45
N-cyclopropyl-3-(4-((2,4-difluorophenyl)fluoromethyl)piperidin-1-yl)-7-methylpyrido[3,4-b]pyrazin-2-amine, 2,2,2-trifluoroacetic acid salt [Cpd 488] | 29
N-cyclopropyl-3-(4-((2,5-difluorophenyl)difluoromethyl)piperidin-1-yl)pyrido[3,4-b]pyrazin-2-amine [Cpd 540] | 46

Source: patent US9770452B2, “Quinoxaline derivatives as GPR6 modulators” (Takeda Pharmaceutical Company Limited, priority 2012, dated 2017)
